Source: patent publication US20160304552A1, “MODIFIED NUCLEIC ACID MOLECULES AND USES THEREOF” (MODERNA THERAPEUTICS, INC., priority 2013, published 2016)

What was measured:
[1] = system: BJ fibroblast cells; test: Cytokine screen in BJ fibroblast cells, human CCL-5/RANTES ELISA; type: cell-based; conditions: BJ fibroblasts, 500 ng modRNA, 18 h to 22 h
Method: At 2 or 3 days prior to transfection, 100,000 BJ fibroblast cells (ATCC no. CRL-2522; Manassas, Va.) were harvested by treatment with trypsin-EDTA solution (LifeTechnologies, Grand Island, N.Y.) and seeded in a total volume of 500 ul EMEM medium (supplemented with 10% FCS and 10% Glutamax, both LifeTechnologies, Grand Island, N.Y.) per well in 24-well cell culture plates (Corning, Manassas, Va.). The cells were grown at 37° C. in a 5% CO2 atmosphere overnight. On the next day, 500 ng modRNA, harboring chemical modifications on the bases or the ribose units, were diluted in 25 ul final volume of OPTI-MEM (LifeTechnologies, Grand Island, N.Y.). Lipofectamine 2000 (LifeTechnologies, Grand Island, N.Y.) was used as transfection reagent and 1.0 ul was diluted in 25 ul final volume of OPTI-MEM. After 5 min incubation at room temperature, both solutions were combined and incubated an additional 15 min at room temperature. The 50 ul were added to the 500 ul cell culture medium containing the BJ fibroblast cells. The plates were then incubated as described above.
After 18 h to 22 h incubation, cell culture supernatants were collected and centrifuged at 10,000 rcf for 2 min. The cleared supernatants were transferred and analyzed with a human IFN-beta ELISA (R&D Systems, Minneapolis, Minn.; Cat. #s 41410-2) and human CCL-5/RANTES ELISA (R&D Systems, Minneapolis, Minn.; Cat. #s SRN00B) according to the manufacturer instructions. All samples were diluted until the determined values were within the linear range of the ELISA standard curves using a BioTek Synergy H1 plate reader (BioTek, Winooski, Vt.).

[2] = target: T7 RNA polymerase (Escherichia phage T7, UniProt P00573); test: In vitro transcription yields of modified mRNA; type: biochemical; conditions: for EPO In Vitro Transcription yield: EPO mRNA made with the modified NTP(s); for GCSF In Vitro Transcription yield: GCSF mRNA made with the modified NTP(s); for Luc In Vitro Transcription yield: Luciferase mRNA made with the modified NTP(s)
Chain of T7 RNA polymerase (P00573 whole entry): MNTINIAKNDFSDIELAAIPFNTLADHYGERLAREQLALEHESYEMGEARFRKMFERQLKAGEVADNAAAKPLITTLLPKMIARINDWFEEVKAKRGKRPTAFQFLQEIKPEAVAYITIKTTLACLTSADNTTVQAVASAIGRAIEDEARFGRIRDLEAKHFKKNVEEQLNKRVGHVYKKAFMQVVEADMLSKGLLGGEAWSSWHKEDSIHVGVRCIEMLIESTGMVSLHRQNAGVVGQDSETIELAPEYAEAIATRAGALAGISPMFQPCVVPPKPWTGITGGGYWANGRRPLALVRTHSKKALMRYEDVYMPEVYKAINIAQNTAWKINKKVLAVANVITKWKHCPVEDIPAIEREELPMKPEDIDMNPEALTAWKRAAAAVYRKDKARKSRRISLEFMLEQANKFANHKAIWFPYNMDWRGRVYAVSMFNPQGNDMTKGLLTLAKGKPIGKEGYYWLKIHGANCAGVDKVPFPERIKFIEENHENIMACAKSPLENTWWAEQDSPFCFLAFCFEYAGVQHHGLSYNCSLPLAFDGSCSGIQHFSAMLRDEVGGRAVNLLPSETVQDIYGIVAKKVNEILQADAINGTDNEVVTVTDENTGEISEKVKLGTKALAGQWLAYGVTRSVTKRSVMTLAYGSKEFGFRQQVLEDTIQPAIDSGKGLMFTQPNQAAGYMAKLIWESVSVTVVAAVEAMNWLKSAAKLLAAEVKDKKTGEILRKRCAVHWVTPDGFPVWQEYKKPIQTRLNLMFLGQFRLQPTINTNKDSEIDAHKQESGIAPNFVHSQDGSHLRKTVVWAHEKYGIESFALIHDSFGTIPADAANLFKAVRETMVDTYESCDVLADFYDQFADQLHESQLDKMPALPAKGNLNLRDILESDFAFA
Method: The in vitro transcription reaction generates mRNA containing modified nucleotides or modified RNA. The input nucleotide triphosphate (NTP) mix is made in-house using natural and unnatural NTPs.
A typical in vitro transcription reaction includes the following:
Incubation at 37° C. for 3 hr-5 hrs.
The crude IVT mix may be stored at 4° C. overnight for cleanup the next day. 1 U of RNase-free DNase is then used to digest the original template. After 15 minutes of incubation at 37° C., the mRNA is purified using Ambion's […]™ Kit (Austin, Tex.) following the manufacturer's instructions. This kit can purify up to 500 μg of RNA. Following the cleanup, the RNA is quantified using the NanoDrop and analyzed by agarose gel electrophoresis to confirm the RNA is the proper size and that no degradation of the RNA has occurred.
Modified mRNAs in TE buffer (1 μl) are used for Nanodrop UV absorbance readings to quantitate the yield of each modified mRNA from an in vitro transcription reaction (UV absorbance traces are not shown).

[3] = system: HeLa cells; test: Transfection in HeLa cells, human EPO modRNA (EPO ELISA of supernatant); type: cell-based; conditions: Table 22, 18 h to 22 h
Method: The day before transfection, 20.000 HeLa cells (ATCC no. CCL-2; Manassas, Va.) were harvested by treatment with Trypsin-EDTA solution (LifeTechnologies, Grand Island, N.Y.) and seeded in a total volume of 100 ul EMEM medium (supplemented with 10% FCS and 1× Glutamax) per well in a 96-well cell culture plate (Corning, Manassas, Va.). The cells were grown at 37° C. in 5% CO2 atmosphere overnight. Next day, 83 ng of Luciferase modRNA or 250 ng of human GCSF modRNA, harboring chemical modifications on the bases or the ribose units, were diluted in 10 ul final volume of OPTI-MEM (LifeTechnologies, Grand Island, N.Y.). Lipofectamine 2000 (LifeTechnologies, Grand Island, N.Y.) was used as transfection reagent and 0.2 μl were diluted in 10 ul final volume of OPTI-MEM. After 5 min incubation at room temperature, both solutions were combined and incubated additional 15 min at room temperature. Then the 20 μl were added to the 100 ul cell culture medium containing the HeLa cells. The plates were then incubated as described before.
After 18 h to 22 h incubation, cell culture supernatants of cells expressing human GCSF or human EPO were collected and centrifuged at 10.000 rcf for 2 min. The cleared supernatants were transferred and analyzed with a human GCSF-specific or EPO ELISA kit (both from R&D Systems, Minneapolis, Minn.; Cat. #s SCS50, DEP00, respectively) according to the manufacturer instructions. All samples were diluted until the determined values were within the linear range of the human GCSF or EPO ELISA standard curve.

Compound	Luc mRNA RANTES [1] [pg/mL]	hEpo mRNA RANTES [1] [pg/mL]	hGCSF mRNA RANTES [1] [pg/mL]	EPO In Vitro Transcription yield [2] [mg]	GCSF In Vitro Transcription yield [2] [mg]	Luc In Vitro Transcription yield [2] [mg]	Epo Expression [3] [pg/mL]
1-methyl-pseudouridine TP, ATP, GTP, CTP	5473	8780	4816				
2-thio-pseudouridine TP, ATP, GTP, CTP	1706	5440	2106				
5-bromocytidine TP, ATP, GTP, UTP	1380	1343	1900				
5-hydroxymethyl-cytidine TP, ATP, GTP, UTP	9826	2160	9063				
5-methoxy-uridine TP, ATP, GTP, UTP	33.33	-6.66	-6.66				
5-trifluromethylcytidine TP, ATP, GTP, UTP	2303	7593	4203				
COC(=O)Cc1cn([C@@H]2O[C@H](COP(=O)(O)OP(=O)(O)OP(=O)(O)O)C(O)C2O)c(=O)[nH]c1=O (stereo in doubt) [00901013005 (358), 5-Methoxy carbonyl methyl-UTP]				0.6432	0.6475	0.8825	8333
CNc1ccn([C@@H]2O[C@H](COP(=O)(O)OP(=O)(O)OP(=O)(O)O)C(O)C2O)c(=O)n1 (stereo in doubt) [00901014004 (346), N4-methyl CTP]				1.154	0.9028	1.124	90280
Nc1ncnc2c1nnn2[C@@H]1O[C@H](COP(=O)(O)OP(=O)(O)OP(=O)(O)O)C(O)C1O (some centres unmarked) [00901011003 (377), 8-Aza-ATP]				0.0055	0.03	0.0262	
O=c1[nH]c(=O)n([C@@H]2O[C@H](COP(=O)(O)OP(=O)(O)OP(=O)(O)O)C(O)C2O)cc1C(F)(F)F (some centres unmarked) [00901013002 (352), 5-Trifluoromethyl-UTP]				0.3830	0.5102	0.3662	
